According to ChEMBL document CHEMBL5620408, “Discovery of novel diarypyrimidine derivatives bearing six-membered non-aromatic heterocycles as potent HIV-1 NNRTIs with improved anti-resistance and drug-like profiles” (Eur J Med Chem, 2023):
Calls of active or inactive are those of the source. The calls are words filed in the database; no cut-off is given here.

Key:
MT4 = experiment: Cytotoxicity against human MT4 cells; format: toxicity, cell-based
[1] = system: Human immunodeficiency virus 1; experiment: Antiviral activity against HIV1 NL4-3 infected in MT4 cells at 25 ng/ml; format: functional, organism-based
[2] = system: Human immunodeficiency virus 1; experiment: microbe, parasite or virus in culture; conditions: Human immunodeficiency virus 1, IIIB, MT4
Description: Antiviral activity against HIV1 IIIB infected in MT-4 cells assessed as viral induced cytopathic effect by MTT assay

[3] = Selectivity index, ratio of CC50 for human MT4 cells to EC50 for antiviral activity against HIV IIIB
[4] = molecular target: Human immunodeficiency virus type 1 reverse transcriptase (Human immunodeficiency virus 1, UniProt Q72547); experiment: Inhibition of wild type HIV-1 reverse transcriptase
[5] = Cytotoxicity against human MT4 cells assessed as reduction in cell viability by MTT assay; format: toxicity, cell-based
[6] = system: Human immunodeficiency virus 1; experiment: microbe, parasite or virus in culture; conditions: Human immunodeficiency virus 1, RES056, MT4
Description: (§1) Antiviral activity against HIV1 RES056 infected in MT-4 cells assessed as viral induced cytopathic effect by MTT assay

[7] = Selectivity index, ratio of CC50 for human MT4 cells to EC50 for antiviral activity against HIV RES056
[8] = system: Human immunodeficiency virus 1; experiment: Antiviral activity against HIV1 harboring Y181C mutant infected in MT4 cells; format: functional, organism-based; conditions: Human immunodeficiency virus 1, MT4
[9] = system: Human immunodeficiency virus 1; experiment: Antiviral activity against HIV1 harboring K103N mutant infected in MT4 cells; format: functional, organism-based; conditions: Human immunodeficiency virus 1, MT4
[10] = system: Human immunodeficiency virus 1; experiment: Antiviral activity against HIV1 harboring E138K mutant infected in MT4 cells; format: functional, organism-based; conditions: Human immunodeficiency virus 1, MT4
[11] = system: Human immunodeficiency virus 1; experiment: Antiviral activity against HIV1 harboring L100I mutant infected in MT4 cells; format: functional, organism-based; conditions: Human immunodeficiency virus 1, MT4
[12] = system: Human immunodeficiency virus 1; experiment: Antiviral activity against HIV1 NL4-3 infected in MT4 cells; format: functional, organism-based; conditions: Human immunodeficiency virus 1, NL4-3, MT4
[13] = system: Human immunodeficiency virus 1; experiment: Antiviral activity against HIV1 harboring Y188L mutant infected in MT4 cells; format: functional, organism-based; conditions: Human immunodeficiency virus 1, MT4
[14] = system: Human immunodeficiency virus 1; experiment: Antiviral activity against HIV1 harboring F227L/V106A double mutant infected in MT4 cells; format: functional, organism-based; conditions: Human immunodeficiency virus 1, MT4
[15] = system: Human immunodeficiency virus 1; conditions: RES056, MT4
Description: as §1

Cc1cc(C#N)cc(C)c1Oc1ccnc(Nc2ccc(N3CCN(S(C)(=O)=O)CC3)cc2)n1
Activity (MT4): Non-Toxic | Activity [1]: inactive

Cc1cc(C#N)cc(C)c1Oc1ccnc(Nc2ccc(C3CCN(S(=O)(=O)C(C)C)CC3)cc2)n1
Activity (MT4): Non-Toxic | Activity [1]: inactive

Cc1cc(C#N)cc(C)c1Oc1ccnc(Nc2ccc(N3CCN(S(=O)(=O)C4CC4)CC3)cc2)n1
Activity (MT4): Non-Toxic | Activity [1]: inactive

Cc1cc(C#N)cc(C)c1Oc1ccnc(Nc2ccc(C3CCN(S(=O)(=O)N(C)C)CC3)cc2)n1
Activity (MT4): Non-Toxic | Activity [1]: inactive

CCS(=O)(=O)N1CCC(c2ccc(Nc3nccc(Oc4c(C)cc(C#N)cc4C)n3)cc2)CC1
Activity (MT4): Non-Toxic | Activity [1]: inactive

CCS(=O)(=O)N1CCN(c2ccc(Nc3nccc(Oc4c(C)cc(C#N)cc4C)n3)cc2)CC1
Activity (MT4): Non-Toxic | Activity [1]: inactive

Cc1cc(C#N)cc(C)c1Oc1ccnc(Nc2ccc(N3CCN(S(=O)(=O)N(C)C)CC3)c(F)c2)n1
EC50 [2]: 0.018 µM | Activity (MT4): Non-Toxic | selectivity ratio [3]: 10300 | IC50 [4]: 0.15 µM | Activity [1]: inactive | CC50 [5]: 186 µM | EC50 [6]: > 186 µM

Cc1cc(C#N)cc(C)c1Oc1ccnc(Nc2ccc(C3CCN(S(C)(=O)=O)CC3)cc2)n1
Activity (MT4): Non-Toxic | Activity [1]: inactive

Cc1cc(/C=C/C#N)cc(C)c1Oc1ccnc(Nc2ccc(N3CCN(S(=O)(=O)N(C)C)CC3)c(F)c2)n1
EC50 [2]: 0.005 µM | selectivity ratio [7]: < 1 | EC50 [8]: 0.12 µM | Activity (MT4): Non-Toxic | EC50 [9]: 0.009 µM | EC50 [10]: 0.032 µM | EC50 [11]: 0.058 µM | EC50 [12]: 0.00567 µM | selectivity ratio [3]: 993 | EC50 [13]: > 4.59 µM | EC50 [14]: 0.068 µM | IC50 [4]: 0.078 µM | CC50 [5]: 4.59 µM | EC50 [6]: > 4.59 µM

CCS(=O)(=O)N1CCN(c2ccc(Nc3nccc(Oc4c(C)cc(/C=C/C#N)cc4C)n3)cc2F)CC1
EC50 [2]: 0.003 µM | selectivity ratio [7]: 64 | EC50 [8]: 0.03 µM | Activity (MT4): Non-Toxic | EC50 [9]: 0.004 µM | EC50 [10]: 0.015 µM | EC50 [11]: 0.021 µM | EC50 [12]: 0.00164 µM | selectivity ratio [3]: 37900 | EC50 [13]: > 111 µM | EC50 [14]: 0.036 µM | IC50 [4]: 0.054 µM | CC50 [5]: 111 µM | EC50 [6]: 1.73 µM

Cc1cc(/C=C/C#N)cc(C)c1Oc1ccnc(Nc2ccc(N3CCN(S(=O)(=O)C(C)C)CC3)c(F)c2)n1
EC50 [2]: 0.005 µM | selectivity ratio [7]: 3 | EC50 [8]: 0.094 µM | Activity (MT4): Non-Toxic | EC50 [9]: 0.007 µM | EC50 [10]: 0.029 µM | EC50 [11]: 0.042 µM | EC50 [12]: 0.0053 µM | selectivity ratio [3]: 3620 | EC50 [13]: > 18.1 µM | EC50 [14]: 0.1 µM | IC50 [4]: 0.097 µM | CC50 [5]: 18.1 µM | EC50 [6]: 5.88 µM

Cc1cc(/C=C/C#N)cc(C)c1Oc1ccnc(Nc2ccc(N3CCN(S(=O)(=O)C4CC4)CC3)c(F)c2)n1
EC50 [2]: 0.005 µM | Activity (MT4): Non-Toxic | Activity [15]: inactive | EC50 [12]: 0.00567 µM | selectivity ratio [3]: 32100 | IC50 [4]: 0.1 µM | CC50 [5]: 170 µM

Cc1cc(C#N)cc(C)c1Oc1ccnc(Nc2ccc(N3CCN(S(=O)(=O)N(C)C)CC3)cc2)n1
Activity (MT4): Non-Toxic | Activity [1]: inactive

Cc1cc(/C=C/C#N)cc(C)c1Oc1ccnc(Nc2ccc(C3CCN(S(C)(=O)=O)CC3)cc2)n1
EC50 [2]: 0.004 µM | selectivity ratio [7]: < 1 | EC50 [8]: 0.32 µM | Activity (MT4): Non-Toxic | EC50 [9]: 0.014 µM | EC50 [10]: 0.03 µM | EC50 [11]: 0.092 µM | EC50 [12]: 0.00623 µM | selectivity ratio [3]: 1030 | EC50 [13]: > 4.3 µM | EC50 [14]: 0.042 µM | IC50 [4]: 0.044 µM | CC50 [5]: 4.3 µM | EC50 [6]: > 4.3 µM

Cc1cc(C#N)cc(C)c1Oc1ccnc(Nc2ccc(N3CCN(S(=O)(=O)C(C)C)CC3)cc2)n1
Activity (MT4): Non-Toxic | Activity [1]: inactive

Cc1cc(C#N)cc(C)c1Oc1ccnc(Nc2ccc(C3CCN(S(=O)(=O)C4CC4)CC3)cc2)n1
Activity (MT4): Non-Toxic | Activity [1]: inactive
